Results taken from patent US20100028889A1, “COMPANION DIAGNOSTIC ASSAYS FOR CANCER THERAPY” (ABBOTT LABORATORIES, priority 2006, published 2010).
Where two headings read alike, the source gives them in different places.

Columns and labels:
Assay type in all cases: cell-based, human
[1] = test system: DOHH2; assay: cell cytotoxicity EC50, CellTiter Glo, leukemia/lymphoma cell line; conditions: DOHH-2
Method: (§1) The SCLC and leukemia/lymphoma cell lines listed below were obtained from the American Type Culture Collection (Manassas, Va.), Deutsche Sammlung von Mikroorganismen und Zellkulturen (DSMZ, Braunsweig, Germany), or were the generous gift from Dr. Louis Staudt (National Cancer Institute) and were cultured as described in Tse, C., Shoemaker, A. R., Adickes, J., et al., “ABT-263: a potent and orally bioavailable Bcl-2 family inhibitor,” Cancer Res 2008; 68: 3421-3428; and Tahir, S. K., Yang, X., Anderson, M. G., et al., “Influence of Bcl-2 family members on the cellular response of small-cell lung cancer cell lines to ABT-737,” Cancer Res 2007; 67: 1176-1183.
(§2) Cells were treated at 10,000 or 50,000 cells per well for adherent or suspension cells, respectively, in 96-well microtiter plates in the presence of 10% human serum for 48 hours with or without ABT-263, in a humidified chamber with 5% CO2. ABT-263 was synthesized as previously described in Tse, C., Shoemaker, A. R., Adickes, J., et al., “ABT-263: a potent and orally bioavailable Bcl-2 family inhibitor,” Cancer Res 2008; 68: 3421-3428; and Oltersdorf, T., Elmore, S. W., Shoemaker, A. R., et al., “An inhibitor of Bcl-2 family proteins induces regression of solid tumours,” Nature 2005; 435: 677-681, and cell cytotoxicity EC50 values were assessed using CellTiter Glo (Promega, Madison Wis.).

[2] = test system: WSU-NHL; assay: as above
Method: as §1, §2

[3] = test system: Rs11380; assay: as above
Method: as §1, §2

[4] = test system: Pfeiffer; assay: as above
Method: as §1, §2

[5] = test system: CEM/C1; assay: as above
Method: as §1, §2

[6] = test system: RS4; 11; assay: as above
Method: as §1, §2

[7] = test system: MEG-01; assay: as above
Method: as §1, §2

[8] = test system: Reh; assay: as above
Method: as §1, §2

[9] = test system: NCI-H847; assay: cell cytotoxicity EC50, CellTiter Glo, SCLC cell line
Method: as §1, §2

[10] = test system: NCI-H69; assay: as above
Method: as §1, §2

[11] = test system: NCI-H1618; assay: as above
Method: as §1, §2

[12] = test system: NCI-H524; assay: as above
Method: as §1, §2

[13] = test system: NCI-1048; assay: as above
Method: as §1, §2

[14] = test system: DMS153; assay: as above
Method: as §1, §2

[15] = test system: NCI-H510; assay: as above
Method: as §1, §2

[16] = test system: NCI-H446; assay: as above
Method: as §1, §2

[17] = test system: NCI-H209; assay: as above
Method: as §1, §2

[18] = test system: H69AR; assay: as above
Method: as §1, §2

[19] = test system: NCI-H1105; assay: as above
Method: as §1, §2

[20] = test system: DMS 114; assay: as above
Method: as §1, §2

[21] = test system: NCI-1417; assay: as above
Method: as §1, §2

[22] = test system: NCI-H2107; assay: as above
Method: as §1, §2

[23] = test system: NCI-211; assay: as above
Method: as §1, §2

[24] = test system: NCI-H2081; assay: as above
Method: as §1, §2

[25] = test system: DMS79; assay: as above
Method: as §1, §2

[26] = test system: NCI-H1672; assay: as above
Method: as §1, §2

[27] = test system: NCI-H526; assay: as above
Method: as §1, §2

[28] = test system: NCI-H82; assay: as above
Method: as §1, §2

[29] = test system: Rec-1; assay: cell cytotoxicity EC50, CellTiter Glo, Mantle Cell Lymphoma cell line, Rec-1 sub-clone batch listed second
Method: as §1, §2

[30] = 10% human serum, 48 hours, read-out: EC50
[31] = Homo sapiens, read-out: Response Designation

CC1(C)CCC(c2ccc(Cl)cc2)=C(CN2CCN(c3ccc(C(=O)NS(=O)(=O)c4ccc(N[C@H](CCN5CCOCC5)CSc5ccccc5)c(S(=O)(=O)C(F)(F)F)c4)cc3)CC2)C1 [ABT-263, N-(4-(4-((2-(4-chlorophenyl)-5,5-dimethyl-1-cyclohex-1-en-1-yl)methyl)piperazin-1-yl)benzoyl)-4-(((1R)-3-(morpholin-4-yl)-1-((phenylsulfanyl)methyl)propyl)amino)-3-((trifluoromethyl)sulfonyl)benzenesulfonamide]
EC50 ([1]; DoHH2, 10% human serum, 48 hours, read-out: EC50): 0.322 µM | EC50 ([1]; Homo sapiens, DOHH2, read-out: Response Designation): ≤ 4.8 µM | EC50 [2, 30]: 3.55 µM | EC50 [2, 31]: ≤ 4.8 µM | EC50 [3, 30]: 0.145 µM | EC50 [3, 31]: ≤ 4.8 µM | EC50 [4, 30]: 8.81 µM | EC50 [4, 31]: > 4.8 µM | EC50 [5, 30]: 0.063 µM | EC50 [5, 31]: ≤ 4.8 µM | EC50 ([6]; Homo sapiens, RS4;11, read-out: Response Designation): ≤ 4.8 µM | EC50 ([6]; RS4, 11, 10% human serum, 48 hours, read-out: EC50): 0.095 µM | EC50 ([7]; Homo sapiens, MEG-01, read-out: Response Designation): > 4.8 µM | EC50 ([7]; Meg-01, 10% human serum, 48 hours, read-out: EC50): 6.04 µM | EC50 [8, 30]: 0.434 µM | EC50 [8, 31]: ≤ 4.8 µM | EC50 [9, 30]: 0.06 µM | EC50 [9, 31]: ≤ 4.1 µM | EC50 [10, 30]: 0.71 µM | EC50 [10, 31]: ≤ 4.1 µM | EC50 [11, 30]: 1.4 µM | EC50 [11, 31]: ≤ 4.1 µM | EC50 [12, 30]: 0.08 µM | EC50 [12, 31]: ≤ 4.1 µM | EC50 [13, 30]: 2.86 µM | EC50 [13, 31]: ≤ 4.1 µM | EC50 ([14]; DMS-153, 10% human serum, 48 hours, read-out: EC50): 11 µM | EC50 ([14]; Homo sapiens, DMS-153, read-out: Response Designation): > 4.1 µM | EC50 [15, 30]: 1.22 µM | EC50 [15, 31]: ≤ 4.1 µM | EC50 [16, 30]: 4.1 µM | EC50 [16, 31]: ≤ 4.1 µM | EC50 [17, 30]: 1.15 µM | EC50 [17, 31]: ≤ 4.1 µM | EC50 [18, 30]: 22.3 µM | EC50 [18, 31]: > 4.1 µM | EC50 [19, 30]: 0.7 µM | EC50 [19, 31]: ≤ 4.1 µM | EC50 [20, 30]: 33.9 µM | EC50 [20, 31]: > 4.1 µM | EC50 [21, 30]: 0.36 µM | EC50 [21, 31]: ≤ 4.1 µM | EC50 [22, 30]: 0.3 µM | EC50 [22, 31]: ≤ 4.1 µM | EC50 [23, 30]: 0.41 µM | EC50 [23, 31]: ≤ 4.1 µM | EC50 [24, 30]: 12 µM | EC50 [24, 31]: > 4.1 µM | EC50 ([25]; DMS-79, 10% human serum, 48 hours, read-out: EC50): 1.9 µM | EC50 ([25]; Homo sapiens, DMS-79, read-out: Response Designation): ≤ 4.1 µM | EC50 [26, 30]: 0.7 µM | EC50 [26, 31]: ≤ 4.1 µM | EC50 [27, 30]: 12.6 µM | EC50 [27, 31]: > 4.1 µM | EC50 [28, 30]: 22.4 µM | EC50 [28, 31]: > 4.1 µM | EC50 ([29]; Homo sapiens, Rec1, read-out: Response Designation): ≤ 4.8 µM | EC50 ([29]; Rec1, 10% human serum, 48 hours, read-out: EC50): 0.698 µM
